Publication PMC6196658, “Activity of Thioallyl Compounds From Garlic Against Giardia duodenalis Trophozoites and in Experimental Giardiasis” (Frontiers in Cellular and Infection Microbiology, 2018)
Several values for one entry are separate records, joined by “and”; a condition that tells them apart may be missing. Equal entries are not always repeated.

Tests used:
[1] = test system: thiol groups exposed in G. duodenalis trophozoite proteins; assay: Thiol-modifying activity (inhibition of thiol-DTNB complexes); format: biochemical, Giardia duodenalis; conditions: 100 μg soluble trophozoite protein, 10 min 37°C, DTNB 412 nm
Protocol: The technique reported by Lawson and Wang ([1993]) was followed. In these assays trophozoites were collected from 60 mL flasks, washed 3 times with PBS and resuspended in 500 μL PBS containing a 1:12.5 dilution of a commercial mixture of protease inhibitors (Complete^TM, Roche Diagnostics GmbH, Indianapolis, IN, USA) and lysed by sonication at 12 microns/60% amplitude (Ultrasonic apparatus Sonic UVX1130PB). Soluble proteins were recovered by centrifugation at 15,400 × g for 30 min at 4°C and protein concentration was determined by the Bradford technique. These samples were adjusted to a concentration of 1 mg/mL. Reactions were carried out in 1.5 mL microcentrifuge tubes with a mixture of 100 μg protein (100 μL) and NaH2PO4 45 mM pH 7.0 mM (800 μL) to which increasing volumes of TACs stocks or a positive control with the thiol derivatizing agent MMTS prepared at 50 mM in the same buffer, were added and total volume was adjusted to 1 mL. After incubation for 10 min at 37°C, 100 μL of 1.5 mM dithionitrobenzoic acid (DTNB, Ellman's reagent) were added to each tube and following incubation for 10 min at room temperature the absorbances (yellow solutions) were recorded at 412 nm (Smart Spec 3000^TM, Bio-Rad, Hercules, CA, USA). A calibration curve was obtained using increasing volumes (0–100 μL) of 15.5 mM cysteine instead protein extracts and the maximal blocking concentration (MBC) corresponding to a complete absence of thiol-DTNB complexes produced by TACs were calculated using the least-square method (Microsoft Excel^TM).

[2] = test system: G. duodenalis trophozoites; assay: Electron microscopy of exposed trophozoites; format: cell-based, Giardia duodenalis
Protocol: Trophozoites were exposed to TACs in two ways: under long (24 h, standard toxicity) and short (3 h, acute toxicity) incubations at 37°C using concentrations corresponding to the experimental MLC (as determined at 24 h) and twofold the MLC, respectively. For scanning electron microscopy, PBS-washed parasites were fixed with 2.5% glutaraldehyde in 0.1 M sodium cacodylate buffer, pH 7.2, dehydrated under increasing concentrations of ethanol, critical-point dried using a Samdri apparatus, gold coated in an ion sputtering device (JEOL-JFC-1100), and examined with a JEOL 35-C scanning electron microscope. In transmission electron microscopy (TEM) studies, washed cells were fixed with 2.5% glutaraldehyde and post-fixed with 1% osmium tetroxide in cacodylate buffer. Following sequential dehydration in ethanol, samples were embedded with epoxy resins.

C=CCS[S+]([O-])CC=C (stereo not drawn) [ALC, diallyl thiosulfinate]
MBC (maximal blocking concentration) ± SD [1]: 93.8 mmol/mg protein and 93.84 ± 12.8 mmol/mg protein | surface damage by scanning electron microscopy ([2]; 600 μM, 24 h (standard toxicity)): membrane blebbing process with profuse holes | intracellular damage by transmission electron microscopy ([2]; standard (600 μM 24 h) or acute (1.2 mM 3 h) protocol): complete loss of electron density of the intracellular elements and the integrity of plasma membrane
